Measurements as given in patent US20170281728A1, “METHOD FOR TREATING CANCER USING TETRADRINE” (Board of Supervisors of Louisiana State University and …, priority 2016, published 2017).

Experiments:
[1] = tested on: DR4; assay: DR4 protein level by western blotting, C4-2b cells; assay type: cell-based; details: 20 μM TET, 0-48 hours, GAPDH loading control
Description: (§1) LNCaP and C4-2b cells were used as model cell lines that show resistance to TRAIL. […] In the present study we evaluated the effects of TET alone or in combination with TRAIL and TNF-α. Prostate cancer cell lines LNCaP and LNCaP derived C4-2b were used for this study. Cell lines were treated with TET, TRAIL, or TNF-αalone or in various combinations for different time points. mRNA expression was quantitated via Real Time-PCR and changes in protein expression were analyzed by Western Blot analysis. Cytotoxicity was evaluated using the Crystal violet and MTT survival assay. Turning to FIGS. 2A-2C, C4-2b cells were treated with 20 μM TET for 0-48 hours. After the treatments cells were lysed and DR4, DR5 and TNFR1 levels were detected by western blotting. Similarly, in FIGS. 3-5, densiomentry fold increase for DR4, DR5 and TNFR1 western blots is shown. The fold increase was calculated with the density of untreated LNCaP cells as a reference. GAPDH was used as loading control. Averages are representative of 3 independent experiments. Error bars represent standard deviation.

[2] = tested on: DR4; assay: DR4 mRNA expression by reverse transcriptase PCR, C4-2b cells; assay type: cell-based; details: 20 μM Tet, 0-48 hours, normalized to GAPDH
Description: (§2) LNCaP and C4-2b cells were used as model cell lines that show resistance to TRAIL. […] In the present study we evaluated the effects of TET alone or in combination with TRAIL and TNF-α. Prostate cancer cell lines LNCaP and LNCaP derived C4-2b were used for this study. Cell lines were treated with TET, TRAIL, or TNF-αalone or in various combinations for different time points. mRNA expression was quantitated via Real Time-PCR and changes in protein expression were analyzed by Western Blot analysis. Cytotoxicity was evaluated using the Crystal violet and MTT survival assay. Turning to FIGS. 6-11, LNCaP and C4-2b cells were incubated in the presence of 20 μM of Tet for different time points (0-48 hours). Total RNA was prepared from the cells and cDNA was transcribed. Reverse transcriptase PCR was performed to determine the mRNA levels of DR4, DR5 and TNF-α. GAPDH was used for normalization. Each data point represents mean+/−standard deviation of three independent gels.

[3] = tested on: TNFR1; assay: TNFR1 mRNA expression by reverse transcriptase PCR, LNCaP cells; assay type: cell-based; details: 20 μM Tet, 0-48 hours, normalized to GAPDH
[4] = tested on: DR4; assay: DR4 protein level (array / western blot densitometry), LNCaP cells; assay type: cell-based; details: 20 μM TET, versus untreated cells
Description: as §1, with “assay. […] LNCaP cells were either untreated or treated with 20 μM TET for 24 hours. Arrays were incubated with 400 μg of each cell lysate. Data shown in FIG. 1 are from a 1 minute exposure to X-ray film. […] Fold increase was calculated with the density of untreated LNCaP cells as a reference. Averages are representative of 2 independent experiments. Error bars represent standard deviation.” for “assay.”, “Averages are representative of 3 independent experiments. Error bars represent standard deviation.” left out

[5] = tested on: DR5; assay: DR5 protein level (array / western blot densitometry), LNCaP cells; assay type: cell-based; details: 20 μM TET, versus untreated cells
Description: as §1, with “assay. […] LNCaP cells were either untreated or treated with 20 μM TET for 24 hours. Arrays were incubated with 400 μg of each cell lysate. Data shown in FIG. 1 are from a 1 minute exposure to X-ray film. […] Fold increase was calculated with the density of untreated LNCaP cells as a reference. Averages are representative of 2 independent experiments. Error bars represent standard deviation.” for “assay.”, “Averages are representative of 3 independent experiments. Error bars represent standard deviation.” left out

[6] = tested on: DR5; assay: DR5 protein level by western blotting, C4-2b cells; assay type: cell-based; details: 20 μM TET, 0-48 hours, GAPDH loading control
Description: as §1

[7] = tested on: prostate cancer cells; assay: Apoptosis in prostate cancer cells in vitro; assay type: cell-based
[8] = tested on: DR4; assay: DR4 mRNA expression by reverse transcriptase PCR, LNCaP cells; assay type: cell-based; details: 20 μM Tet, 0-48 hours, normalized to GAPDH
Description: as §2

[9] = tested on: C4-2b cells; assay: Cytotoxicity by crystal violet staining and MTT survival assay, C4-2b cells; assay type: cell-based; details: for response of cells following exposure to the agent alone: TRAIL or TNF-α alone
Description: (§3) LNCaP and C4-2b cells were used as model cell lines that show resistance to TRAIL. […] In the present study we evaluated the effects of TET alone or in combination with TRAIL and TNF-α. Prostate cancer cell lines LNCaP and LNCaP derived C4-2b were used for this study. Cell lines were treated with TET, TRAIL, or TNF-αalone or in various combinations for different time points. mRNA expression was quantitated via Real Time-PCR and changes in protein expression were analyzed by Western Blot analysis. Cytotoxicity was evaluated using the Crystal violet and MTT survival assay.
(§4) Turning to FIGS. 12-15, pretreatment of both cell lines with TET for 12 hours, followed by TRAIL and TNF-α treatment for another 24 hours increased the apoptosis inducing potential of TRAIL and TNF-α in these cells. […] For FIGS. 12 and 14, LNCap (FIG. 12) and C4-2b (FIG. 14) cells treated with or without TET, TRAIL, and TNFα were crystal violet stained. Wells are representative of at least three repeats. For FIGS. 13 and 15, LNCap (FIG. 13) and C4-2b (FIG. 15) cells were subjected to MTT assay using the same experimental plan as in FIGS. 12, 14 respectively. Data were normalized to the untreated control at the respective concentrations of TET, TRAIL and TNF-α. Data are representative of at least three repeats.

[10] = tested on: TNFR1; assay: TNFR1 protein level (array / western blot densitometry), LNCaP cells; assay type: cell-based; details: 20 μM TET, versus untreated cells
Description: as §1, with “assay. […] LNCaP cells were either untreated or treated with 20 μM TET for 24 hours. Arrays were incubated with 400 μg of each cell lysate. Data shown in FIG. 1 are from a 1 minute exposure to X-ray film. […] Fold increase was calculated with the density of untreated LNCaP cells as a reference. Averages are representative of 2 independent experiments. Error bars represent standard deviation.” for “assay.”, “Averages are representative of 3 independent experiments. Error bars represent standard deviation.” left out

[11] = tested on: prostate cancer cells; assay: Apoptosis in prostate cancer cells in vivo
[12] = tested on: TNFR1; assay: TNFR1 protein level by western blotting, C4-2b cells; assay type: cell-based; details: 20 μM TET, 0-48 hours, GAPDH loading control
Description: as §1

[13] = tested on: LNCaP cells; assay: Cytotoxicity by crystal violet staining and MTT survival assay, LNCaP cells; assay type: cell-based; details: for response of cells following exposure to the agent alone: TRAIL or TNF-α alone
Description: as §3, §4

[14] = tested on: DR5; assay: DR5 mRNA expression by reverse transcriptase PCR, C4-2b cells; assay type: cell-based; details: 20 μM Tet, 0-48 hours, normalized to GAPDH
Description: as §2

[15] = tested on: DR5; assay: DR5 mRNA expression by reverse transcriptase PCR, LNCaP cells; assay type: cell-based; details: 20 μM Tet, 0-48 hours, normalized to GAPDH
Description: as §2

[16] = tested on: TNFR1; assay: TNFR1 mRNA expression by reverse transcriptase PCR, C4-2b cells; assay type: cell-based; details: 20 μM Tet, 0-48 hours, normalized to GAPDH
[17] = TET pretreatment 12 hours, then TRAIL and TNF-α for another 24 hours

COc1ccc2cc1Oc1ccc(cc1)C[C@H]1c3cc(c(OC)cc3CCN1C)Oc1c(OC)c(OC)cc3c1[C@H](C2)N(C)CC3 [TET, Tetrandrine]
protein level of DR4 [1]: increased
mRNA level of DR4 [2]: increased
mRNA level of TNFR1 [3]: increased
protein level of DR4 [4]: increased
protein level of DR5 [5]: increased
protein level of DR5 [6]: increased
apoptosis in prostate cancer cells [7]: promotes apoptosis
mRNA level of DR4 [8]: increased
apoptosis inducing potential of TRAIL and TNF-α after TET pretreatment [9, 17]: increased
apoptosis response to soluble h-TRAIL and TNF-α in combination with TET ([9]; TET treated cells in vitro): synergistic apoptosis response
protein level of TNFR1 [10]: increased
apoptosis in prostate cancer cells [11]: promotes apoptosis
protein level of TNFR1 [12]: increased
apoptosis inducing potential of TRAIL and TNF-α after TET pretreatment [13, 17]: increased
apoptosis response to soluble h-TRAIL and TNF-α in combination with TET ([13]; TET treated cells in vitro): synergistic apoptosis response
mRNA level of DR5 [14]: increased
mRNA level of DR5 [15]: increased
mRNA level of TNFR1 [16]: increased

TNF-α
response of cells following exposure to the agent alone [9]: did not show a significant response
response of cells following exposure to the agent alone [13]: did not show a significant response

B1: TRAIL: protein functioning as a ligand that induces apoptosis; cytokine binding death receptors DR4 and DR5 (protein, UniProt P50591 1-281, looked up)
Tumor necrosis factor ligand …: MAMMEVQGGPSLGQTCVLIVIFTVLLQSLCVAVTYVYFTNELKQMQDKYSKSGIACFLKEDDSYWDPNDEESMNSPCWQVKWQLRQLVRKMILRTSEETISTVQEKQQNISPLVRERGPQRVAAHITGTRGRSNTLSSPNSKNEKALGRKINSWESSRSGHSFLSNLHLRNGELVIHEKGFYYIYSQTYFRFQEEIKENTKNDKQMVQYIYKYTSYPDPILLMKSARNSCWSKDAEYGLYSIYQGGIFELKENDRIFVSVTNEHLIDMDHEASFFGAFLVG
response of cells following exposure to the agent alone [9]: did not show a significant response
response of cells following exposure to the agent alone [13]: did not show a significant response
